Key:
Details in all cases: human, ipsc-cm
[1] = (§1) Electrical activity assay on cell lines treated with a given drug. DMSO was used as a vehicle and a control, unblinded dofetilide was used as a control.
[2] = as §1; remark: listed apart in the source
[3] = as §1; format: ADME, cell-based; parameters: FPDc: unit not given here
[4] = as §1; format: cell-based; parameters: APDc: unit not given here
[5] = as §1; remark: listed apart in the source
[6] = as §1; remark: listed apart in the source
[7] = as §1; format: ADME, cell-based
[8] = 0.0001 µM, concentration (um) 0.0001 uM
[9] = 0.001 µM, concentration (um) 0.001 uM
[10] = 0.01 µM, concentration (um) 0.01 uM
[11] = 0.1 µM, concentration (um) 0.1 uM
[12] = 0.003 µM, concentration (um) 0.003 uM
[13] = 0.03 µM, concentration (um) 0.03 uM
[14] = 0.3 µM, concentration (um) 0.3 uM

COc1ccc(CCN2CCC(Nc3nc4ccccc4n3Cc3ccc(F)cc3)CC2)cc1 [ASTEMIZOLE]
FPD measurement ([1]; 0.0001 µM): 55.11 FPDc
FPDc ([1]; 0.0001 µM): 55.11
FPD measurement ([1]; 0.001 µM): 55.33 FPDc
FPDc ([1]; 0.001 µM): 55.33
FPD measurement ([1]; 0.01 µM): 57.8 FPDc
FPDc ([1]; 0.01 µM): 57.8
FPD measurement ([1]; 0.1 µM): 75.34 FPDc
FPDc ([1]; 0.1 µM): 75.34
FPD measurement ([2]; 0.0001 µM): 1 Values Out Of 1 Were Excluded Due To Quiescence Or 0 Fpdc
FPDc ([2]; 0.0001 µM): 1 Values Out Of 1 Were Excluded Due To Quiescence Or 0 Fpdc
FPD measurement ([2]; 0.001 µM): 1 Values Out Of 1 Were Excluded Due To Quiescence Or 0 Fpdc
FPDc ([2]; 0.001 µM): 1 Values Out Of 1 Were Excluded Due To Quiescence Or 0 Fpdc
FPD measurement ([2]; 0.01 µM): 1 Values Out Of 1 Were Excluded Due To Quiescence Or 0 Fpdc
FPDc ([2]; 0.01 µM): 1 Values Out Of 1 Were Excluded Due To Quiescence Or 0 Fpdc
FPD measurement ([2]; 0.1 µM): 1 Values Out Of 1 Were Excluded Due To Quiescence Or 0 Fpdc
FPDc ([2]; 0.1 µM): 1 Values Out Of 1 Were Excluded Due To Quiescence Or 0 Fpdc
FPD measurement [3, 8]: 5 Values Out Of 5 Were Excluded Due To Quiescence Or 0 Apdc
FPDc [3, 8]: 53.45
FPD measurement [3, 9]: 5 Values Out Of 5 Were Excluded Due To Quiescence Or 0 Apdc
FPDc [3, 9]: 49.25
FPD measurement [3, 10]: 5 Values Out Of 5 Were Excluded Due To Quiescence Or 0 Apdc
FPDc [3, 10]: 53.23
FPD measurement [3, 11]: 5 Values Out Of 5 Were Excluded Due To Quiescence Or 0 Apdc
FPDc [3, 11]: 40.28
APDc [4, 8]: 54.17
FPD measurement [4, 8]: 54.17 FPDc
APDc [4, 9]: 53.88
FPD measurement [4, 9]: 53.88 FPDc
APDc [4, 10]: 57.03
FPD measurement [4, 10]: 57.03 FPDc
APDc [4, 11]: 77.9
FPD measurement [4, 11]: 77.9 FPDc

O=c1[nH]c2ccccc2n1CCCN1CCC(n2c(=O)[nH]c3cc(Cl)ccc32)CC1 [DOMPERIDONE]
FPDc ([5]; 0.003 µM): 73.87
FPDc ([5]; 0.03 µM): 88.38
FPDc ([5]; 0.3 µM): More Than Half The Wells Had A Quiescence Event Or Fpdc Readings Of 0
FPD measurement ([5]; 3 µM): More Than Half The Wells Had A Quiescence Event Or Apdc Readings Of 0
FPDc ([5]; 3 µM): More Than Half The Wells Had A Quiescence Event Or Fpdc Readings Of 0
APDc ([6]; 0.003 µM): 72.4
FPD measurement ([6]; 0.003 µM): 72.4 FPDc
APDc ([6]; 0.03 µM): 67
FPD measurement ([6]; 0.03 µM): 67 FPDc
APDc ([6]; 0.3 µM): 78.3
FPD measurement ([6]; 0.3 µM): 78.3 FPDc
APDc ([6]; 3 µM): More Than Half The Wells Had A Quiescence Event Or Apdc Readings Of 0
FPD measurement ([6]; 3 µM): More Than Half The Wells Had A Quiescence Event Or Apdc Readings Of 0
FPD measurement [7, 12]: 47.3 FPDc
FPDc [7, 12]: 6 Values Out Of 6 Were Excluded Due To Quiescence Or 0 Fpdc
FPD measurement [7, 13]: 85.58 FPDc
FPDc [7, 13]: 6 Values Out Of 6 Were Excluded Due To Quiescence Or 0 Fpdc
FPD measurement [7, 14]: 42.56 FPDc
FPDc [7, 14]: 6 Values Out Of 6 Were Excluded Due To Quiescence Or 0 Fpdc
FPDc ([7]; 3 µM, concentration (um) 3 uM): 6 Values Out Of 6 Were Excluded Due To Quiescence Or 0 Fpdc

From ChEMBL document CHEMBL4295262, “Evaluation of the utility of stem-cell derived cardiomyocytes for drug proarrhythmic potential” (2019)
